Laboratory results published in patent US9156790B2, “Anticancer P21-activated kinase inhibitors” (Ohio State Innovation Foundation, priority 2013, dated 2015).

Assays:
[1] = tested on: TPC1 cells; test: MTT cell viability assay, TPC1; type: cell-based, Human; details: Homo sapiens, TPC1, 72-hours of exposure, 1% FBS, mean±standard deviation (n=3), read-out: IC50 for reducing viability of TPC1 cells versus DMSO control
Description: (§1) Human thyroid cancer BCPAP, TPC1, and FTC133 cell lines were the generous gifts of Drs. Rebecca Schweppe and Bryan Haugen (University of Colorado Denver) (Schweppe et al., The Journal of clinical endocrinology and metabolism 83:4331-4341 (2008)) with permission from the following originating laboratories: BCPAP—Dr. Fabien, Centre Hospitalier Lyon-Sud, France (Fabien et al., Cancer 73:2206-2212 (1994)); TPC1—Dr. Sato, Kanazawa University, Japan (Tanaka et al., Virology 161:62-411 (1987)); and FTC133—Dr. Goretzki, University of Leipzig, Germany (Goretzki et al., Recent Results Cancer Res 118:48-63 (1990)). The obtained cell lines were confirmed for identity by DNA fingerprinting. BCPAP was grown in RPMI 1640 medium (Life Technologies Co., Carlsbad, Calif.) while FTC133 and TPC1 were grown in DMEM (Life Technologies Co.), both supplemented with 10% fetal bovine serum (FBS) and NEAA unless as noted for experiments.
(§2) The effect of OSU-03012 and its derivatives on cell viability was assessed by using the 3-(4,5-dimethylthiazol-2-yl)-2,5-diphenyl-2H-tetrazolium bromide (MTT) assay. Three replicates were performed in each individual experiment, and experiments were repeated at least three separate times. Cells were grown in 96-well plates for 24 hours and were exposed to various concentrations of drugs dissolved in DMSO (final concentration 0.1%) in RPMI 1640 or DMEM containing 1% FBS for 72 hours. 10 μL of 0.5 mg/ml MTT was added to each well and cells were incubated in CO2 at 37° C. for 2 hours. Supernatants were removed from the wells, the reduced MTT dye was solubilized in 100 μL of solution C (12 ml of 1N HCl in 300 mL of isopropanol), and absorbance at 570 nm was determined on a microplate reader.
(§3) We assessed the ability of the compounds to reduce cell viability in vitro by MTT assay after 72 hours of continuous exposure. Results are shown in Table 1 and are depicted as the IC50 vs. simultaneously performed DMSO control.
(§4) ^aThe reported IC50 values are concentrations at which BCPAP, FTC133 and TPC1 cell viability by MTT assays 50% of DMSO control after 72-hours of exposure. Data are presented as mean±standard deviation (n=3). PAK and PDK1 Selectivity In Vivo

[2] = tested on: PDK1 phosphorylation of Akt (Thr308); test: Western blot, PDK1 phosphorylation of Akt (Thr308) in thyroid cancer cells; type: cell-based, Human; details: 7.5 μM, 6 h, BCPAP, FTC133 and TPC1 cells (FIG. 3)
Experimental: (§5) Protein isolation and Western blot were performed as previously described. Ringel et al., Cancer research 61:6105-6111 (2001). 25 μg of total cell lysates were loaded into 4-12% SDS-PAGE, electrophoresed, and transferred to nitrocellulose membranes for immunoblotting. Primary antibodies against Akt (#9272), phospho-Akt (Thr308) (#2965), p44/42 MAPK (Erk1/2) (#9107), phospho-p44/42 MAPK (Erk1/2) (Thr202/Tyr204) (#4377) and GAPDH (#2118) were obtained from Cell Signaling Technology (Danvers, Mass., USA). Antibody against Vimentin (V6630) and phospho-Ser55 Vimentin were from Sigma-Aldrich, Inc. (St. Louis, Mo.) and MBL Co. (Nagoya, Japan), respectively. Antibodies against total and phosphorylated S6 were from Cell Signaling Technology®.
(§6) The ability of the compounds with in vitro anti-PAK1 activity was assessed for activity […] in thyroid cancer cells. In addition, because the compounds are based on the structure of a PDK1 inhibitor, PDK1 inhibitory activity was also assessed. Inhibitory activity in cells was estimated using Western blot with primary antibodies directed against kinase-specific phosphorylation sites; serine 56 of vimentin for PAK and threonine 308 of Akt for PDK1. BCPAP, TPC1, and FTC133 thyroid cancer cells were utilized. BCPAP and TPC1 are derived from PTC and have BRAF V600E and RET/PTC1 rearrangements, respectively. FTC133 is derived from a follicular thyroid cancer with an inactivating mutation of PTEN. Similar to the kinase screening assay, cells were treated with the six compounds or OSU-03012 at 7.5 μM concentration or with DMSO vehicle alone. The results were not entirely consistent across the three cell lines presumably related to mutation status or other factors. OSU-03012 inhibited both PDK1 and PAK-mediated phosphorylation of targets as predicted.
(§7) The dose-dependency of compounds 4 and 15 was next assessed (FIG. 4). […] Due to the important role that ERK activation plays in thyroid cancer, and its signaling activation by thyroid oncogenes, the effects of the compounds on ERK phosphorylation was also assessed.

[3] = tested on: BCPAP cells; test: MTT cell viability assay, BCPAP; type: cell-based, Human; details: Homo sapiens, BCPAP, 72-hours of exposure, 1% FBS, mean±standard deviation (n=3), read-out: IC50 for reducing viability of BCPAP cells versus DMSO control
Description: as §1, §2, §3, §4

[4] = tested on: PAK phosphorylation of Vimentin (Ser56); test: Western blot, PAK phosphorylation of Vimentin (Ser56) in thyroid cancer cells; type: cell-based, Human; details: 7.5 μM, 6 h, BCPAP, FTC133 and TPC1 cells (FIG. 3)
Experimental: as §5, §6, §7

[5] = tested on: FTC133 cells; test: MTT cell viability assay, FTC133; type: cell-based, Human; details: Homo sapiens, FTC-133, 72-hours of exposure, 1% FBS, mean±standard deviation (n=3), read-out: IC50 for reducing viability of FTC133 cells versus DMSO control
Description: as §1, §2, §3, §4

[6] = biological target: T1, Recombinant active PAK 1 (Homo sapiens, UniProt Q13153); test: In vitro PAK1 kinase assay (MBP substrate, 32P-ATP); type: biochemical
T1 construct: purchased Calbiochem
Experimental: Recombinant active PAK 1 (Calbiochem) was incubated with selected derivatives or 0.1% DMSO in the presence or absence of MBP (Sigma) in a 1× kinase buffer (Cell Signaling). The addition of [γ-32P]-ATP (2.5 μCi/reaction) (Perkin Elmer) started the reaction, which was incubated at 30° C. for 30 minutes. The reaction was terminated by the addition of EDTA. Results were obtained after visualization of ^32P-labeled MBP after separation on 12% polyacrylamide gels and autoradiography. For the Lineweaver-Burk plot analysis, the ratio of radioactive ATP to nonradioactive ATP was not altered. The PAK1 kinase activities are the means of three independent experiments quantified using P81 phosphocellulose paper by a scintillation counter after three washes with 0.75% phosphoric acid.
Screening of OSU-03012 Derivatives to Identify PAK1 Inhibitors. The 17 derivatives along with OSU-03012, each at 7.5 μM, were screened for their ability to inhibit PAK1 activity by in vitro PAK1 kinase assay. The dose was chosen (above the IC50 of OSU-03012) to allow OSU-03012 to serve as a robust positive control. The PAK1 kinase assay was performed using recombinant active PAK1 with myelin basic protein as substrate in the presence of 2.5 μM ATP and 7.5 μM of respective inhibitors.
To further investigate these six compounds, dose-response studies on PAK1 activity were performed by using PAK1 kinase assay. […] We next questioned whether compounds 4 or 15 inhibited PAK1 in an ATP competitive manner as their parent compound OSU-03012.

[7] = biological target: PAK (Homo sapiens, UniProt Q13153); details: Porchia et al., Mol Pharmacol 72:1124-1131 (2007); cited from earlier work
Sequence of PAK (Q13153 whole entry): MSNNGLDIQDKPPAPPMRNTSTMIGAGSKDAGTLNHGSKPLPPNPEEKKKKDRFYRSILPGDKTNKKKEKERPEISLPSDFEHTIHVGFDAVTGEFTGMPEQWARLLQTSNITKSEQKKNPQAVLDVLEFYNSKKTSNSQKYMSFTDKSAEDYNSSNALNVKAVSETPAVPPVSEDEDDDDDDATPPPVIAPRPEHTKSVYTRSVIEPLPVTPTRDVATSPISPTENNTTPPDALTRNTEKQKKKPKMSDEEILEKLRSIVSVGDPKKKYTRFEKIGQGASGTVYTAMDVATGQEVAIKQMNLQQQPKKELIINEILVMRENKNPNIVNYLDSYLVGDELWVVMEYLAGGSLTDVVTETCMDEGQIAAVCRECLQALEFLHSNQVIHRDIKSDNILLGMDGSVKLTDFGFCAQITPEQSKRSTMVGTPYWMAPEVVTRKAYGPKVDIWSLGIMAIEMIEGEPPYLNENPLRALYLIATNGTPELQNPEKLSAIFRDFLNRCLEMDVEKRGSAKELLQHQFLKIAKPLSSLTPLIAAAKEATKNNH

T1 sequence (Q13153 whole entry): as above

| Structure (SMILES) | IC50 [1] [µM] | PDK1 phosphorylation of Akt (Thr308) (Western blot) [2] | IC50 [3] [µM] | PAK phosphorylation of vimentin (Western blot) [4] | IC50 [5] [µM] | Inhibition of PAK1 kinase activity in initial screen ([6]; 7.5 μM inhibitor, 2.5 μM ATP, myelin basic protein substrate (FIG. 2A)) | Relative PAK1 inhibitory potency (comparison in words) ([6]; in vitro kinase assay, comparison between compounds / with OSU-03012) | IC50 ([6]; in vitro kinase assay, read-out: IC50 versus PAK, in vitro (bound implied by chosen test concentration)) [µM] | PAK inhibitory activity (previously reported) [7] |
| --- | --- | --- | --- | --- | --- | --- | --- | --- | --- |
| NCCC(=O)Nc1ccc(-n2nc(CO)cc2-c2ccc3ccc4ccccc4c3c2)cc1 [Compound 11, 3-Amino-N-(4-(3-(hydroxymethyl)-5-(phenanthren-3-yl)-1H-pyrazol-1-yl)phenyl)-propanamide] | 4.98 ± 1.94 | markedly inhibit PDK1 phosphorylation of Akt | 4.5 ± 1.04 | did not significantly alter PAK phosphorylation of vimentin | 3.94 ± 2.29 | inhibited PAK1 kinase activity | more potent | – | – |
| NCC(=O)Nc1ccc(-n2nc(C(F)(F)F)cc2-c2ccc3c(ccc4ccccc43)c2)cc1 [OSU-03012, reference compound] | 2.8 ± 1.33 | inhibited | 2.93 ± 1.05 | inhibited | 2.93 ± 1.87 | – | – | < 7.5 | low micromolar concentrations |
